Experimental data published in patent US20240254135A1, “POLYPHENOL COMPOUNDS” (Epirium Bio Inc., priority 2022, published 2024).

Assay: Pharmacokinetics: quantitative determination in mice brains (LCMS)
Type: in vivo, C57BL/6 Mice
Conditions: mice brain, 10 mg/kg PO single dose, 10% NMP vehicle; for Tmax: C57BL/6, mouse
Procedure: C57BL/6 Mice, Age 7-9 weeks, body weight range 20-25 g were used. The mice were fasted overnight. Mice were dosed once a day for a single day at 10 mg/kg, 10 mg/kg. 6 time-points were used for whole blood. 10% NMP was used as a vehicle. 9 animals were used per treatment, with three groups of three animals each. Group 1 had time points at 15 and 60 minutes, Group 2 had time points at 30 and 120 minutes, and Group 3 had time points at 90 and 240 minutes. An Oral (PO) route was used. Plasma and brain samples were collected (brain sample collected at terminal time point). Plasma was collected through the centrifugation of whole blood at 10,000 rpm for 10 minutes at 4° C. Samples were stored at −80° C. until processing.
1.00 mg/mL in 100% MeOH PP vials (prepared at RT yellow light) at 2-8° C. were used as stock solution. 12.22-50000 ng/mL using 80% MeOH PP vials (prepared at RT yellow light) at 2-8° C. were used as working solution. 0.48-2000 ng/ml (prepared at RT yellow light) was used for the curve range. For Compounds 75b and 78a, 1.00 mg/mL of Compound 79 in 100% methanol Ria vials (Prepared at RT yellow light) was used as IS stock solution, and 60 ng/ml of Compound 79 in 80% methanol (Prepared at RT yellow light) was used as IS working solution. For Compound 76b, 1.00 mg/mL of Compound 44 in 100% methanol Ria vials (Prepared at RT yellow light) was used as IS stock solution, and 60 ng/ml of Compound 44 in 80% methanol (Prepared at RT yellow light) was used as IS working solution. A linear, 1/x2 fit type was used. The injection volume was 15 μL. Mobile Phase A was 0.1% Formic Acid in water at room temperature. Mobile Phase B was 100% methanol at room temperature. R0 wash solution was 80% methanol at room temperature. R^3 wash solution was IPA/MeOH/ACN/water (1:1:1:1) at room temperature. The column was Agilent Eclipse 50*2.1 mm 1.8 μm and the instrument was Shimadzu LC-40 UPLC and AB Sciez 6500+ with LCMS002.
For Compound 75b, 100 mg of brain tissue were weighed, 400 μL of Ice cold PBS was added, and the sample was homogenated using a polytron homogenizer. Before starting the experiment the blade was cleaned with NS, Methanol, Methanol:Water (50:50) followed by NS. Using a pipette with Methanol-rinsed pipette tips, 50 μL of each sample (calibration curve sample, QC samples and blank matrix) was aliquot to labeled 12×75-mm glass tubes. Using Methanol-rinsed pipette tips, 5.0 μL of IS of conc. 60 ng (Compound 79) was added to each standard and samples except Blank. All tubes were mixed on a multi-tube vortex for approximately 30 seconds. 1 ml of Ethyl Acetate was added. All tubes were mixed on a multi-tube vortex for approximately 5 minutes then centrifuged for 10 min at 5,000 rpm, 4° C. The sample was kept in methanol containing dry ice for few seconds to freeze the Aqueous layer (flash freeze method). The upper organic layer was poured from the frozen tubes into the labeled 12×75-mm glass tubes then evaporated to dryness under nitrogen using Liquid Evaporator (30° C., −15 psi, ˜ 10 mins). 200 μl of reconstitution solution (10 mM Ammonium Formate:MeOH (40:60 v/v) was added into each tube, which was then vortexed for 30 seconds and transferred to amber glass injection vials for injection. At the terminal time points, animals were euthanized after blood sample collection. Their skulls were opened and whole brains were separated and collected in previously labeled tubes. The tubes were then immediately transferred into liquid nitrogen container for snap freezing. Later the samples were stored at −80° C.
For Compounds 76b and 78a, 100 mg of brain tissue were weighed, 400 μL of Ice cold PBS was added, and the samples were homogenated using a polytron homogenizer. Before starting the experiment the blade was cleaned with NS, Methanol, Methanol:Water (50:50) followed by NS. […]

Row | SMILES | Tmax [h] | AUC0-4 [hr*g/tissue]
1 | Oc1cc(O)c2c(c1)OC(c1ccccc1)C(O)C2 (single isomer, unassigned) [Compound 78a, 2-phenylchromane-3,5,7-triol] | 1 | 29.135
2 | Oc1cc(O)c2c(c1)OC(c1ccc(O)c(F)c1)C(O)C2 (single isomer, unassigned) [Compound 76b, 2-(3-fluoro-4-hydroxyphenyl)chromane-3,5,7-triol] | 1 | 5.993
3 | COc1cc(C2Oc3ccccc3CC2O)ccc1F (single isomer, unassigned) [Compound 75b, 2-(4-fluoro-3-methoxyphenyl)chroman-3-ol] | 1 | 238.5399
